Consider two compounds from patent publication US10548829B2, “Oral care compositions and methods of use” (priority 2016, dated 2020).

One assay concerns Actinomyces viscosus. In words: Growth inhibition (OD610), single culture. The assay is classed as cell-based. Conditions: A. viscosus. The protocol: (§1) Further characterization was performed on planktonic oral microbes; Streptococcus sobrinus (Cariongenic—strain-SL1[CCM 6070, CNCTC 9/89] (ATCC cat. #33478), Streptococcus gordonii (Arginolytic—strain V288 (ATCC cat. #35105), Actinomyces viscosus) as well late colonizer (Gram −), pathogenic Aggregatibacter actinomycetemcomitans. All microbes were grown in their respective culture media: Streptococcus sobrinus and Streptococcus gordonii in BHI broth (BD, cat #237500), Aggregatibacter actinomycetemcomitans in BHI broth supplemented with 0.5% Yeast Extract (BD, cat #210941) and Actinomyces viscosus in Trypticase Soy Broth (BD, cat #211768) supplemented with 0.5% Yeast Extract (BD, cat #210941). Bacteria were cultured overnight in 37° C., 5% CO2 in approximately 20 ml of the appropriate culture broth. The following day, the OD610 was determined and solutions were diluted to 0.2 for the assay.
Test samples (Naringin, Naringin:Zinc complex and Naringin+Zinc Acetate (combination)) were prepared as a 100 mM stock solution followed by 2 fold serial dilution in 100% DMSO. Triclosan (positive control) was prepared as a 10% stock in 100% EtOH and 3 fold serial dilutions were done in 100% EtOH. […]
After approximately 12-13 hours of treatment, the plate was read at 610 nm using an Envision plate reader (PerkinElmer, Waltham, Mass.). The % inhibition relative to control was determined as follows: […]

The subject of another assay is Streptococcus gordonii. In words: Growth inhibition (OD610), single culture. Format: cell-based. The method, then:
Single species of Streptococcus gordonii (S. gordonii, S.g) strain V288 (ATCC #35105), Streptococcus sobrinus (S. sobrinus, S.$) strain SL1[CCM 6070, CNCTC 9/89] (ATCC #33478), or Aggregatibacter actinomycetemcomitans were analyzed. Also, a mixed culture containing Actinomyces viscosus (A. viscosus, A.v) strain (ATCC, #43146), Lactobacillus casei (L. casei, L.c) strain (ATCC #334), Streptococcus oralis (S. oralis, S. o) strain (ATCC #35037), Fusobacterium nucleatum (F. nucleatum, F. n) strain (ATCC #10953), and Veilonella parvula (V. parvula, V. p) strain (ATCC #17745) was also analyzed for growth inhibition/toxicity activity. Bacteria were cultured overnight in approximately 20 ml of BHI broth (BD, cat #237500) or maintained in a specialized complex modified BHI II medium in a continuous culture chemostat at 37° C. respectively. The following day, the OD610 were determined and solutions diluted to an OD610 of 0.2 or 0.1 respectively for the assay.
Triclosan (positive control) was prepared as a 10% stock in 100% EtOH and 3 fold serial dilutions were performed in 100% EtOH. An appropriate amount of the diluted samples was then transferred into a 96 well clear plate such that the resulting final concentration of the test samples ranged from either a 2 mM or 4 mM (highest concentration) to 0.0078 mM or 0.0156 mM (lowest concentration respectively) in 2% DMSO in 100 μl media per well. Triclosan (TCN) ranged from 0.01% to 1.67e-6% in 1% EtOH. For Zinc acetate, in order to mimic the 2:1 molar ratio (ligand:Zinc) in the Naringin:Zinc complex, the final concentration ranged from 0.7 mM to 0.0027 mM for samples with 2 mM as the highest concentration and 1.33 mM to […] for samples with 4 mM as the highest concentration in 2% DMSO. Next, 100 μl of bacterial culture at OD610 0.2 were introduced to the wells with the test samples. The wells were thoroughly mixed and incubated at 37° C. overnight. The plates were read using an Envision plate reader (PerkinElmer, Waltham, Mass.) at 610 nm.
The IC50 for the complex, Product 5, was determined for Streptococcus gordonii (S. gordonii), Streptococcus sobrinus (S. sobrinus), Aggregatibacter actinomycetemcomitans (A. actinomycetemcomitans), and also for the mixed bacterial culture. […] Triclosan (TCN) was included as a positive control for bacterial inhibition.
as §1
Triclosan (positive control) was prepared as a 10% stock in 100% EtOH and 3 fold serial dilutions were done in 100% EtOH. […] For Naringin+Zinc combination, while the highest total overall concentration was 2 mM, the exact concentration was Naringin (1.3 mM) and Zinc Acetate (0.7 mM) due to the compositions 2:1 molar ratio. For Zinc Acetate, in order to mimic the 2:1 ratio (ligand:Zinc) composition as in the complex, the final concentration ranged from 0.7 mM to 0.0027 mM in 2% DMSO.
A 100 μl aliquot of bacterial culture at OD610 0.2 were introduced to the wells with the test samples. The wells were thoroughly mixed and plates incubated overnight in a 37° C. incubator with or without 5% CO2 depending upon the bacterial species.

As to `C[C@@H]1O[C@@H](O[C@H]2[C@H](Oc3cc(O)c4c(c3)O[C@H](c3ccc(O)cc3)CC4=O)O[C@H](CO)[C@@H](O)[C@@H]2O)[C@H](O)[C@H](O)[C@H]1O` [Naringin], the inhibition (commonly the relative decrease from the control value, in per cent) at 500 µM is -3.5 ± 4.1% in the assay with Actinomyces viscosus (Actinomyces viscosus, 0.5 mM (combination 0.325 mM + 0.175 mM, 0.5 mM total)) and 0.96 ± 2.82% in the assay on Streptococcus gordonii (Streptococcus gordonii, S. gordonii, 0.5 mM (combination 0.325 mM + 0.175 mM, 0.5 mM total)).
On to `CC(=O)[O-].CC(=O)[O-].[Zn+2]` [Zinc Acetate alone, Zinc (II) Acetate], for which the % Inhibition (usually the drop in the measured response relative to a control, in per cent) in the assay on Actinomyces viscosus (0.175 mM) is listed as −1.84 ± 5.86%; in the assay with Streptococcus gordonii (S. gordonii, 0.175 mM) it was 13.51 ± 10.18%. For the same compound, in the assay on Streptococcus gordonii (Streptococcus gordonii, overnight at 37° C., read-out: IC50), the IC50 – broadly, the point on the concentration scale where inhibition reaches its midpoint – stood at 300 ± 20 µM.
